Results: PubChem BioAssay AID1963983 (Molecular Pharmacology Branch, DTP, NCI, 2024)

System: 186277-243-T-J2-PDC multi-cell spheroid viability
Assay: Anticancer human tumor 186277-243-T-J2-PDC patient-derived colon adenocarcinoma cell line growth inhibition [PI3K]
Details: for IC50: curve of first compound; for viability, T/C: stronger effect = lower value
Method in brief: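 Agents were dosed from a top concentration near clinical Cmax (otherwise 10 microM) in half-log decrements, alone or combined with PI3K inhibitors. The spheroids contain tumor cells plus endothelial (HUVEC) and MSC stroma; viability is measured.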

[1] = second compound 0.0316 µM, first compound 0.0316 µM
[2] = second compound 0.0316 µM, first compound 0.1 µM
[3] = second compound 0.0316 µM, first compound 0.316 µM
[4] = second compound 0.0316 µM, first compound 1 µM
[5] = second compound 0.0316 µM, first compound 3.16 µM
[6] = second compound 0.0316 µM, first compound 10 µM
[7] = second compound 0.1 µM, first compound 0.0316 µM
[8] = second compound 0.1 µM, first compound 0.1 µM
[9] = second compound 0.1 µM, first compound 0.316 µM
[10] = second compound 0.1 µM, first compound 1 µM
[11] = second compound 0.1 µM, first compound 3.16 µM
[12] = second compound 0.1 µM, first compound 10 µM
[13] = second compound 0.316 µM, first compound 0.0316 µM
[14] = second compound 0.316 µM, first compound 0.1 µM
[15] = second compound 0.316 µM, first compound 0.316 µM
[16] = second compound 0.316 µM, first compound 1 µM
[17] = second compound 0.316 µM, first compound 3.16 µM
[18] = second compound 0.316 µM, first compound 10 µM
[19] = second compound 1 µM, first compound 0.0316 µM
[20] = second compound 1 µM, first compound 0.1 µM
[21] = second compound 1 µM, first compound 0.316 µM
[22] = second compound 1 µM, first compound 1 µM
[23] = second compound 1 µM, first compound 3.16 µM
[24] = second compound 1 µM, first compound 10 µM
[25] = second compound 3.16 µM, first compound 0.0316 µM
[26] = second compound 3.16 µM, first compound 0.1 µM
[27] = second compound 3.16 µM, first compound 0.316 µM
[28] = second compound 3.16 µM, first compound 1 µM
[29] = second compound 3.16 µM, first compound 3.16 µM
[30] = second compound 3.16 µM, first compound 10 µM
[31] = second compound 10 µM, first compound 0.0316 µM
[32] = second compound 10 µM, first compound 0.1 µM
[33] = second compound 10 µM, first compound 0.316 µM
[34] = second compound 10 µM, first compound 1 µM
[35] = second compound 10 µM, first compound 3.16 µM
[36] = second compound 10 µM, first compound 10 µM
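Note: spheroids exposed to compounds for seven days before viability reading.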
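Throughout, for viability, T/C: 100% = DMSO vehicle control viability.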

CNC(=O)c1ccc(N2C(=S)N(c3ccc(C#N)c(C(F)(F)F)c3)C(=O)C2(C)C)cc1F + Cc1nc(NC(=O)N2CCCC2C(N)=O)sc1-c1ccnc(C(C)(C)C(F)(F)F)c1
IC50 (second compound 0.0316 µM): > 10000 nM | IC50 (second compound 0.1 µM): > 10000 nM | IC50 (second compound 0.316 µM): > 10000 nM | IC50 (second compound 1 µM): > 10000 nM | IC50 (second compound 3.16 µM): > 10000 nM | IC50 (second compound 10 µM): < 31.6 nM | viability, T/C [1]: 83.5% | viability, T/C [2]: 90% | viability, T/C [3]: 102% | viability, T/C [4]: 91.9% | viability, T/C [5]: 103% | viability, T/C [6]: 109% | viability, T/C [7]: 106% | viability, T/C [8]: 92.5% | viability, T/C [9]: 109% | viability, T/C [10]: 100% | viability, T/C [11]: 114% | viability, T/C [12]: 95.4% | viability, T/C [13]: 97.1% | viability, T/C [14]: 95.5% | viability, T/C [15]: 92% | viability, T/C [16]: 115% | viability, T/C [17]: 102% | viability, T/C [18]: 86.1% | viability, T/C [19]: 106% | viability, T/C [20]: 96% | viability, T/C [21]: 111% | viability, T/C [22]: 105% | viability, T/C [23]: 103% | viability, T/C [24]: 86% | viability, T/C [25]: 62.7% | viability, T/C [26]: 62.6% | viability, T/C [27]: 66.4% | viability, T/C [28]: 66.7% | viability, T/C [29]: 70.1% | viability, T/C [30]: 58.7% | viability, T/C [31]: 13.9% | viability, T/C [32]: 17.7% | viability, T/C [33]: 14.7% | viability, T/C [34]: 14% | viability, T/C [35]: 15.5% | viability, T/C [36]: 13.8%

CCN1CCN(Cc2ccc(Nc3ncc(F)c(-c4cc(F)c5nc(C)n(C(C)C)c5c4)n3)nc2)CC1 + COc1c(OCCCN2CCOCC2)ccc2c3n(c(=NC(=O)c4cnc(N)nc4)nc12)CCN3
IC50 (second compound 0.00316 µM): > 1000 nM | IC50 (second compound 0.01 µM): > 1000 nM | IC50 (second compound 0.0316 µM): 234 nM | IC50 (second compound 0.1 µM): < 3.16 nM | IC50 (second compound 0.316 µM): < 3.16 nM | IC50 (second compound 1 µM): < 3.16 nM | viability, T/C (second compound 0.00316 µM, first compound 0.00316 µM): 95.3% | viability, T/C (second compound 0.00316 µM, first compound 0.01 µM): 111% | viability, T/C (second compound 0.00316 µM, first compound 0.0316 µM): 94.3% | viability, T/C (second compound 0.00316 µM, first compound 0.1 µM): 134% | viability, T/C (second compound 0.00316 µM, first compound 0.316 µM): 151% | viability, T/C (second compound 0.00316 µM, first compound 1 µM): 108% | viability, T/C (second compound 0.01 µM, first compound 0.00316 µM): 101% | viability, T/C (second compound 0.01 µM, first compound 0.01 µM): 107% | viability, T/C (second compound 0.01 µM, first compound 0.0316 µM): 113% | viability, T/C (second compound 0.01 µM, first compound 0.1 µM): 112% | viability, T/C (second compound 0.01 µM, first compound 0.316 µM): 123% | viability, T/C (second compound 0.01 µM, first compound 1 µM): 69.4% | viability, T/C (second compound 0.0316 µM, first compound 0.00316 µM): 68.4% | viability, T/C (second compound 0.0316 µM, first compound 0.01 µM): 59.7% | viability, T/C [1]: 57.8% | viability, T/C [2]: 52.4% | viability, T/C [3]: 54.8% | viability, T/C [4]: 33.2% | viability, T/C (second compound 0.1 µM, first compound 0.00316 µM): 19.9% | viability, T/C (second compound 0.1 µM, first compound 0.01 µM): 17.7% | viability, T/C [7]: 16% | viability, T/C [8]: 13% | viability, T/C [9]: 14.5% | viability, T/C [10]: 12.8% | viability, T/C (second compound 0.316 µM, first compound 0.00316 µM): 6.67% | viability, T/C (second compound 0.316 µM, first compound 0.01 µM): 7.13% | viability, T/C [13]: 4.73% | viability, T/C [14]: 3.28% | viability, T/C [15]: 6.05% | viability, T/C [16]: 7.03% | viability, T/C (second compound 1 µM, first compound 0.00316 µM): 2.68% | viability, T/C (second compound 1 µM, first compound 0.01 µM): 3% | viability, T/C [19]: 2.82% | viability, T/C [20]: 2.7% | viability, T/C [21]: 7% | viability, T/C [22]: 4.26%

Cn1nccc1Nc1nccc(-c2ccn(C(CO)c3ccc(Cl)c(F)c3)c(=O)c2)n1 (stereo unspecified) + Cc1nc(NC(=O)N2CCCC2C(N)=O)sc1-c1ccnc(C(C)(C)C(F)(F)F)c1
IC50 (second compound 0.0316 µM): 1840 nM | IC50 (second compound 0.1 µM): 1190 nM | IC50 (second compound 0.316 µM): 670 nM | IC50 (second compound 1 µM): 152 nM | IC50 (second compound 3.16 µM): < 31.6 nM | IC50 (second compound 10 µM): < 31.6 nM | viability, T/C [1]: 89% | viability, T/C [2]: 104% | viability, T/C [3]: 117% | viability, T/C [4]: 71.3% | viability, T/C [5]: 34.2% | viability, T/C [6]: 18.5% | viability, T/C [7]: 91.8% | viability, T/C [8]: 108% | viability, T/C [9]: 99.5% | viability, T/C [10]: 53.8% | viability, T/C [11]: 30.9% | viability, T/C [12]: 22.5% | viability, T/C [13]: 105% | viability, T/C [14]: 100% | viability, T/C [15]: 76.2% | viability, T/C [16]: 34.8% | viability, T/C [17]: 20.5% | viability, T/C [18]: 9.74% | viability, T/C [19]: 94.9% | viability, T/C [20]: 61.1% | viability, T/C [21]: 30.9% | viability, T/C [22]: 13.9% | viability, T/C [23]: 14% | viability, T/C [24]: 6.14% | viability, T/C [25]: 47.4% | viability, T/C [26]: 29.6% | viability, T/C [27]: 15% | viability, T/C [28]: 5.96% | viability, T/C [29]: 8.12% | viability, T/C [30]: 2.21% | viability, T/C [31]: 9.88% | viability, T/C [32]: 9.03% | viability, T/C [33]: 8.27% | viability, T/C [34]: 8.15% | viability, T/C [35]: 1.39% | viability, T/C [36]: 2.02%
